Assay results published in PMC7144380 (Molecules, 2020).
Where two headings read alike, the source gives them in different places.

How the values were obtained:
MOR, mouse vas deferens = target: T1, MOR, mouse vas deferens (Mus musculus, UniProt P42866); conditions: read-out: EC50 ± S.E.M. (nM) / MVD
T1 construct: gene Oprm1; native receptor in isolated mouse vas deferens

[1] = target: T2, µ-opioid receptor (MOR), rat (Rattus norvegicus, UniProt P33535); type: binding; conditions: read-out: Ki ± S.E.M. (nM) / [^3H]DAMGO (μ) ^1
T2 construct: gene Oprm1; native receptor in rat brain membrane homogenate or rat vas deferens

[2] = target: T3, δ-opioid receptor (DOR), rat (Rattus norvegicus, UniProt P33533); experiment: [3H]Ile5,6-deltorphin II competition, rat brain membranes; type: binding; conditions: 50 mM Tris-HCl pH 7.4, 35 °C, 45 min; unreliable (incomplete displacement)
T3 construct: gene Oprd1; native receptor in rat brain membrane homogenate

[3] = target: T3, δ-opioid receptor (DOR), rat; experiment: as above; type: binding; conditions: read-out: Ki ± S.E.M. (nM) / [^3H]IleDelt II (δ) ^1; 50 mM Tris-HCl pH 7.4, 35 °C, 45 min; Cheng-Prusoff
[4] = target: T4, κ-opioid receptor (KOR), guinea pig (Cavia porcellus, UniProt P41144); experiment: [3H]U-69593 competition, guinea pig brain membranes; type: binding; conditions: 50 mM Tris-HCl pH 7.4, 30 °C, 30 min; unreliable (partial displacement)
T4 construct: gene OPRK1; native receptor in guinea pig brain membrane homogenate
Description: [3H]U-69593 competition, guinea pig brain membranes on κ-opioid receptor (KOR), guinea pig

[5] = target: T2, µ-opioid receptor (MOR), rat; experiment: […]GTPγS binding, rat brain membranes; type: biochemical; conditions: read-out: EC50 ± S.E.M.; agonist; pH 7.4, 30 °C, 60 min, 30 µM GDP; mixed opioid receptors in tissue, assigned to MOR by the authors
[6] = target: T3, δ-opioid receptor (DOR), rat; experiment: […]GTPγS binding, rat brain membranes; type: biochemical; conditions: agonist; pH 7.4, 30 °C, 60 min, 30 µM GDP

**Q.** For `COc1ccc2c3c1O[C@H]1[C@@H](OS(=O)(=O)O)C=C[C@H]4[C@@H](C2)N(C)CC[C@@]341` [codeine-6-O-sulfate], which EC50 (MOR, mouse vas deferens; agonist, Mg2+-free Krebs, 31 °C, MOR assigned by naloxone Ke) is on record?
**A.** > 1000 nM

**Q.** And the Ki ([1]; 50 mM Tris-HCl pH 7.4, 35 °C, 45 min, Cheng-Prusoff)?
**A.** 96.9 ± 20.3 nM

**Q.** What about the “Ki ± S.E.M. (nM) / [^3H]IleDelt II (δ) ^1” value [2] of the same compound?
**A.** 968.28 ± 471.38 nM

**Q.** How did the EC50 (MOR, mouse vas deferens) turn out when `COc1ccc2c3c1O[C@H]1[C@@H](OS(=O)(=O)O)C=C[C@@]4(OC)[C@@H](C2)N(C)CC[C@]314` [14-methoxycodeine-6-O-sulfate] was run?
**A.** 239 ± 6.15 nM

**Q.** And the Ki [3]?
**A.** 346 ± 133 nM

**Q.** And the “Ki ± S.E.M. (nM) / [^3H]U-69593 (κ) ^2” value [4]?
**A.** 245.57 ± 215.01 nM

**Q.** And the EC50 [5]?
**A.** 301 ± 197 nM

**Q.** What about the Ki [1] of the same compound?
**A.** 3.37 ± 0.48 nM

**Q.** For `CC(C)[C@H](NC(=O)[C@H](CCC(=O)O)NC(=O)[C@H](Cc1ccccc1)NC(=O)[C@@H](C)NC(=O)[C@@H](N)Cc1ccc(O)cc1)C(=O)N[C@H](C(=O)NCC(N)=O)C(C)C` [deltorphin II], which EC50 [6] is on record?
**A.** 44.4 ± 23.5 nM
